Data reported in ChEMBL document CHEMBL1177794, “Broad spectrum alkynyl inhibitors of T315I Bcr-Abl” (Bioorg Med Chem Lett, 2010).

What was measured:
BaF3 = experiment: Antiproliferative activity against mouse BAF3 cells; assay type: functional, cell-based
[1] = test system: Tyrosine-protein kinase ABL1 (Homo sapiens), P00519 [Q252H]; experiment: Inhibition of non phosphorylated ABL1 Q252H mutant at 10 uM; details: values are per cent of control
[2] = target: Activin receptor type-1 (Homo sapiens) (UniProt Q04771); experiment: Inhibition of ACVR1 at 10 uM; details: values are per cent of control
[3] = target: RAC-alpha serine/threonine-protein kinase (Homo sapiens) (UniProt P31749); experiment: Inhibition of AKT1 at 10 uM; details: values are per cent of control
[4] = target: Ankyrin repeat and protein kinase domain-containing protein 1 (Homo sapiens) (UniProt Q8NFD2); experiment: Inhibition of ANKK1 at 10 uM; details: values are per cent of control
[5] = target: Mitogen-activated protein kinase kinase kinase 5 (Homo sapiens) (UniProt Q99683); experiment: Inhibition of ASK1 at 10 uM; details: values are per cent of control
[6] = target: Mitogen-activated protein kinase kinase kinase 6 (Homo sapiens) (UniProt O95382); experiment: Inhibition of ASK2 at 10 uM; details: values are per cent of control
[7] = target: Aurora kinase B (Homo sapiens) (UniProt Q96GD4); experiment: Inhibition of AURKB at 10 uM; details: values are per cent of control
[8] = target: Tyrosine-protein kinase receptor UFO (Homo sapiens) (UniProt P30530); experiment: Inhibition of AXL at 10 uM; details: values are per cent of control
[9] = target: Tyrosine-protein kinase Blk (Homo sapiens) (UniProt P51451); experiment: Inhibition of BLK at 10 uM; details: values are per cent of control
[10] = target: Bone morphogenetic protein receptor type-1B (Homo sapiens) (UniProt O00238); experiment: Inhibition of BMPR1B at 10 uM; details: values are per cent of control
[11] = target: Cytoplasmic tyrosine-protein kinase BMX (Homo sapiens) (UniProt P51813); experiment: Inhibition of BMX at 10 uM; details: values are per cent of control
[12] = target: Calcium/calmodulin-dependent protein kinase type II subunit alpha (Homo sapiens) (UniProt Q9UQM7); experiment: Inhibition of CAMK2A at 10 uM; details: values are per cent of control
Sequence of Calcium/calmodulin-dependent protein kinase type II subunit alpha (Homo sapiens) (Q9UQM7 whole entry): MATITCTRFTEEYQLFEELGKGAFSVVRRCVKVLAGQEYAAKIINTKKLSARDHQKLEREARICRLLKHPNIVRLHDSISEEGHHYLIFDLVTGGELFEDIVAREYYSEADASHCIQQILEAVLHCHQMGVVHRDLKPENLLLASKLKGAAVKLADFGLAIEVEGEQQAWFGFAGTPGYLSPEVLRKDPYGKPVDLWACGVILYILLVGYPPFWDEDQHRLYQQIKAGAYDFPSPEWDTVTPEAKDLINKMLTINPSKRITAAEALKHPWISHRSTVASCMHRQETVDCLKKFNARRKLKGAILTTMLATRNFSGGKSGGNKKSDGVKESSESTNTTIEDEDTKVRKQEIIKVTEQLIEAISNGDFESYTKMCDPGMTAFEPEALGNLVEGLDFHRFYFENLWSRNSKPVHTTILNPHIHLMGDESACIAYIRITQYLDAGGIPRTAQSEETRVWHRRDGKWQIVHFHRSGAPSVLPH

[13] = target: Casein kinase II subunit alpha (Homo sapiens) (UniProt P68400); experiment: Inhibition of CSNK2A1 at 10 uM; details: values are per cent of control
[14] = target: Casein kinase II subunit alpha' (Homo sapiens) (UniProt P19784); experiment: Inhibition of CSNK2A2 at 10 uM; details: values are per cent of control
[15] = target: Dual specificity tyrosine-phosphorylation-regulated kinase 1B (Homo sapiens) (UniProt Q9Y463); experiment: Inhibition of DYRK1B at 10 uM; details: values are per cent of control
[16] = target: Ephrin type-A receptor 2 (Homo sapiens) (UniProt P29317); experiment: Inhibition of EPHA2 at 10 uM; details: values are per cent of control
Sequence of Ephrin type-A receptor 2 (Homo sapiens) (P29317 whole entry): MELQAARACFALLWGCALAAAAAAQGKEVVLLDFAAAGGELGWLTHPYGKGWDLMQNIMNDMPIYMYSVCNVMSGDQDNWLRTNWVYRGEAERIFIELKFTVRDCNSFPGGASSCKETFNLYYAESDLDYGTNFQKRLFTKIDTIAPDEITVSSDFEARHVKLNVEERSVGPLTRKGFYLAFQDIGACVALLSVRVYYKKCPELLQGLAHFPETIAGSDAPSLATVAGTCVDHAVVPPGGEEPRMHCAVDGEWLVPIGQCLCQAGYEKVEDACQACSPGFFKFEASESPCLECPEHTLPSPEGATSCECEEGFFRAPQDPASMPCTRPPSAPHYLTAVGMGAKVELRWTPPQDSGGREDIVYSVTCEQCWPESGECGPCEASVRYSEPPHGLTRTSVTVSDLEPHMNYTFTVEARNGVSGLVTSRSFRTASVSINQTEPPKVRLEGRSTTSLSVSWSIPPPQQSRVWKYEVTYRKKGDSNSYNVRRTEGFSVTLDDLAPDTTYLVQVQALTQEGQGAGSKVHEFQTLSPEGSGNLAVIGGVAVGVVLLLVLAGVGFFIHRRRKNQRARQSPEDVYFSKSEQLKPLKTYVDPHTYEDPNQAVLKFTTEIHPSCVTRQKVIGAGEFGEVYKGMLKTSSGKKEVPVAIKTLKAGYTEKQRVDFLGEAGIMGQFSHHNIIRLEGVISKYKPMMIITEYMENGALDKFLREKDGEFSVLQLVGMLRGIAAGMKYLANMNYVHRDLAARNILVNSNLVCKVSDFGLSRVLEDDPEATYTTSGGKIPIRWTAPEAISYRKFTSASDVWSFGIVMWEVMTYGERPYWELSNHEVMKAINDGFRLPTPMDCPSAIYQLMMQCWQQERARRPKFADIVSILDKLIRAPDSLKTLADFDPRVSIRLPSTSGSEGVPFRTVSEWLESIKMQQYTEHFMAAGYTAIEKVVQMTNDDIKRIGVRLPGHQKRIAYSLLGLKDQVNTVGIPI

[17] = target: Ephrin type-A receptor 6 (Homo sapiens) (UniProt Q9UF33); experiment: Inhibition of EPHA6 at 10 uM; details: values are per cent of control
[18] = target: Serine/threonine-protein kinase/endoribonuclease IRE1 (Homo sapiens) (UniProt O75460); experiment: Inhibition of ERN1 at 10 uM; details: values are per cent of control
[19] = target: Tyrosine-protein kinase Fer (Homo sapiens) (UniProt P16591); experiment: Inhibition of FER at 10 uM; details: values are per cent of control
[20] = test system: Receptor-type tyrosine-protein kinase FLT3 (Homo sapiens), P36888 [K663Q]; experiment: Inhibition of FLT3 K663Q mutant at 10 uM; details: values are per cent of control
[21] = target: Glycogen synthase kinase-3 beta (Homo sapiens) (UniProt P49841); experiment: Inhibition of GSK3B at 10 uM; details: values are per cent of control
[22] = target: Insulin-like growth factor 1 receptor (Homo sapiens) (UniProt P08069); experiment: Inhibition of IGF1R at 10 uM; details: values are per cent of control
[23] = target: Inhibitor of nuclear factor kappa-B kinase subunit epsilon (Homo sapiens) (UniProt Q14164); experiment: Inhibition of IKK-epsilon at 10 uM; details: values are per cent of control
[24] = test system: Mast/stem cell growth factor receptor Kit (Homo sapiens), P10721 [D816H]; experiment: Inhibition of KIT D816H mutant at 10 uM; details: values are per cent of control
Sequence of Mast/stem cell growth factor receptor Kit (Homo sapiens), P10721 [D816H] (P10721 whole entry D816H): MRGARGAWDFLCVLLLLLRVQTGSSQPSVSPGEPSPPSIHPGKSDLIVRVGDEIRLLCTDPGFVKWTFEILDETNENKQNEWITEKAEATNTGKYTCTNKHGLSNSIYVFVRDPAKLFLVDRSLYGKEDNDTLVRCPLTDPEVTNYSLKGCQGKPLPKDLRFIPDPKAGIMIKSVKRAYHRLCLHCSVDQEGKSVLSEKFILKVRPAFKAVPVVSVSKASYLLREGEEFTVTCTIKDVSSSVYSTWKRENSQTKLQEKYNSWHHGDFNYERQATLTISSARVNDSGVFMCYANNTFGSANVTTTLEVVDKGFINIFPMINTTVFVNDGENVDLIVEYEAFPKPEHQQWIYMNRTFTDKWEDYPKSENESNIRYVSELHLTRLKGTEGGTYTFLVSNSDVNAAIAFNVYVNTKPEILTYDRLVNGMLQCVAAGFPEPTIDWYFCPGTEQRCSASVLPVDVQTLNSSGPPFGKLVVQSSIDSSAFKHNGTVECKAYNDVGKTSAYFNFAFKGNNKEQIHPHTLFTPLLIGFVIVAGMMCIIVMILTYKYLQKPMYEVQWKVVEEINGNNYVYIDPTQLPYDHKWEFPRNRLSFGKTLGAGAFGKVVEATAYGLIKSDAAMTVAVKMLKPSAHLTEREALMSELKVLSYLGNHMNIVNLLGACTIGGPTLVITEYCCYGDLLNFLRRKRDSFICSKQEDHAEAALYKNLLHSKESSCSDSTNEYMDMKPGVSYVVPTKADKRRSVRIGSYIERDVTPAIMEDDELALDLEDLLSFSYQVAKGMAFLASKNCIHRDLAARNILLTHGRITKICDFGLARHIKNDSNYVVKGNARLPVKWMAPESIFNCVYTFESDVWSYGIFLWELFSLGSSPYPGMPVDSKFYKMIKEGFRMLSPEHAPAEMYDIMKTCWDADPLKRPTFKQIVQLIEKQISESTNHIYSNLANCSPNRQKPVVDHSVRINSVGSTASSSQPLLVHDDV

[25] = test system: Mast/stem cell growth factor receptor Kit (Homo sapiens), P10721 [L576P]; experiment: Inhibition of KIT L576P mutant at 10 uM; details: values are per cent of control
Sequence of Mast/stem cell growth factor receptor Kit (Homo sapiens), P10721 [L576P] (P10721 whole entry L576P): as the sequence (P10721 whole entry D816H) above, with L576P, H816D counted along it

[26] = target: Mitogen-activated protein kinase kinase kinase 1 (Homo sapiens) (UniProt Q13233); experiment: Inhibition of MAP3K1 at 10 uM; details: values are per cent of control
Sequence of Mitogen-activated protein kinase kinase kinase 1 (Homo sapiens) (Q13233 whole entry): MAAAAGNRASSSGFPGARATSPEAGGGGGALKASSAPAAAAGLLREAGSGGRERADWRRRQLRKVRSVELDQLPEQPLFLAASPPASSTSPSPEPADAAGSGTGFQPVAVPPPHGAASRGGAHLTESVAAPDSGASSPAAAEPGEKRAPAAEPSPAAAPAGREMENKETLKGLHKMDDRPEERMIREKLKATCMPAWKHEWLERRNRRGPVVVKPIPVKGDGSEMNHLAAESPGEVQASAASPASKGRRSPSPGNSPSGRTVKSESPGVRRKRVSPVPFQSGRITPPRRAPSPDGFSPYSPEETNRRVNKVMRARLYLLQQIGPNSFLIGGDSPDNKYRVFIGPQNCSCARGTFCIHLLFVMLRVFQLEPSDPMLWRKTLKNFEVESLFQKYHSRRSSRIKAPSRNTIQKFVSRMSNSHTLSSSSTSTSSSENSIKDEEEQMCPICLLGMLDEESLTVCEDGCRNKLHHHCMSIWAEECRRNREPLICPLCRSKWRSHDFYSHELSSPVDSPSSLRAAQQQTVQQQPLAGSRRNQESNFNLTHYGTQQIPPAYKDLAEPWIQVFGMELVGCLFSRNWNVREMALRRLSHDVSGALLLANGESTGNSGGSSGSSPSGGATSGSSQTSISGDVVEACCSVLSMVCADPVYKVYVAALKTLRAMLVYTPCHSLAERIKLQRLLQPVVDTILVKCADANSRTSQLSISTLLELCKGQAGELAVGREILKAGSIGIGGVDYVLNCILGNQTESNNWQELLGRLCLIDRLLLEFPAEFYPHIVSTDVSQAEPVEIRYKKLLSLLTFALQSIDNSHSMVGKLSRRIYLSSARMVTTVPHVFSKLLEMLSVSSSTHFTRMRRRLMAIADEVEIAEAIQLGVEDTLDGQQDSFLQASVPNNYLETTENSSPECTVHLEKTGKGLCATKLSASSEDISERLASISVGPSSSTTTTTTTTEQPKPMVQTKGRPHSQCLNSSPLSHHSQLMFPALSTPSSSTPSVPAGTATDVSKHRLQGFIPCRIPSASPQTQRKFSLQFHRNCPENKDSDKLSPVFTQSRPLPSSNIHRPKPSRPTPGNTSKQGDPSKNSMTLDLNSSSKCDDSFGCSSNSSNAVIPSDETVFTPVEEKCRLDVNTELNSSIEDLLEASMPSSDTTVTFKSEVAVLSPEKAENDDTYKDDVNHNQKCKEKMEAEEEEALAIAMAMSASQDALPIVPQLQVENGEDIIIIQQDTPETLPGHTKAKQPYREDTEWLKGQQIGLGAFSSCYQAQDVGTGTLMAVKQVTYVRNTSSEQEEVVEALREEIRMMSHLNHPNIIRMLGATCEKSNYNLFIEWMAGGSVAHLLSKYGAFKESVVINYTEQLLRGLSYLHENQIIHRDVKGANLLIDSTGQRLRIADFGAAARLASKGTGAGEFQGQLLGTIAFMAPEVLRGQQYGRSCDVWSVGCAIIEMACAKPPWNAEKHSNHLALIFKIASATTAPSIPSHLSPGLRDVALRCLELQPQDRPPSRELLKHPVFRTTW

[27] = target: MAP kinase-activated protein kinase 2 (Homo sapiens) (UniProt P49137); experiment: Inhibition of MAPKAPK2 at 10 uM; details: values are per cent of control
[28] = target: Dual specificity mitogen-activated protein kinase kinase 6 (Homo sapiens) (UniProt P52564); experiment: Inhibition of MEK6 at 10 uM; details: values are per cent of control
[29] = target: Serine/threonine-protein kinase 38 (Homo sapiens) (UniProt Q15208); experiment: Inhibition of NDR1 at 10 uM
[30] = target: Serine/threonine-protein kinase Nek4 (Homo sapiens) (UniProt P51957); experiment: Inhibition of NEK4 at 10 uM
Sequence of Serine/threonine-protein kinase Nek4 (Homo sapiens) (P51957 whole entry, looked up): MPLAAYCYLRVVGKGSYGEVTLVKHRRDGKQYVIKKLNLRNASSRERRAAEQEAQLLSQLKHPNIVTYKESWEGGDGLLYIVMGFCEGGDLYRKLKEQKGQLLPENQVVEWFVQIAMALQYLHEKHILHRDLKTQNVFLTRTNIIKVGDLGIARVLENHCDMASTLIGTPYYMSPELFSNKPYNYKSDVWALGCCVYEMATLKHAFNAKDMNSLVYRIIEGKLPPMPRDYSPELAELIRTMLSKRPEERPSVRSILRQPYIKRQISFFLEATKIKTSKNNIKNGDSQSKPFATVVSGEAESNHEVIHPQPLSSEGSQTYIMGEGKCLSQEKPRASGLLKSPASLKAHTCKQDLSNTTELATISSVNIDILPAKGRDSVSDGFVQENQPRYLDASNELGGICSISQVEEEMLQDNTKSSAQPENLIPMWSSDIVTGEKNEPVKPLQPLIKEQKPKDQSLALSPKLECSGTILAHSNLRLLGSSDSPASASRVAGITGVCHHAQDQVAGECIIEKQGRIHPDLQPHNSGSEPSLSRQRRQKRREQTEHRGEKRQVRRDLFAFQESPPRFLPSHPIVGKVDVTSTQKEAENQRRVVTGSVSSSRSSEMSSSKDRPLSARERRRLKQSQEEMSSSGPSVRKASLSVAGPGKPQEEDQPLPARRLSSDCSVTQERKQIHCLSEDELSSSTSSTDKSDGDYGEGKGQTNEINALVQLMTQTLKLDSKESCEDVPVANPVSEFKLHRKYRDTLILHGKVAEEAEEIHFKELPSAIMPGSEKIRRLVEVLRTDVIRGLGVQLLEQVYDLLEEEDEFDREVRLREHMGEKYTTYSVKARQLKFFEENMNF

[31] = target: Serine/threonine-protein kinase Nek5 (Homo sapiens) (UniProt Q6P3R8); experiment: Inhibition of NEK5 at 10 uM
[32] = target: Serine/threonine-protein kinase Nek9 (Homo sapiens) (UniProt Q8TD19); experiment: Inhibition of NEK9 at 10 uM
[33] = target: Serine/threonine-protein kinase 36 (Homo sapiens) (UniProt Q9NRP7); experiment: Inhibition of STK36 at 10 uM
[34] = target: Serine/threonine-protein kinase TAO2 (Homo sapiens) (UniProt Q9UL54); experiment: Inhibition of TAOK2 at 10 uM
[35] = target: Serine/threonine-protein kinase 32A (Homo sapiens) (UniProt Q8WU08); experiment: Inhibition of YANK1 at 10 uM; details: values are per cent of control
[36] = target: Calcium-dependent protein kinase 1 (Plasmodium falciparum) (UniProt P62344); experiment: Inhibition of Plasmodium falciparum PFCDPK1 at 10 uM; details: values are per cent of control
[37] = target: Phosphorylase b kinase gamma catalytic chain, skeletal muscle/heart isoform (Homo sapiens) (UniProt Q16816); experiment: Inhibition of PHKG1 at 10 uM
[38] = test system: Phosphatidylinositol 4,5-bisphosphate 3-kinase catalytic subunit alpha isoform (Homo sapiens), P42336 [E542K]; experiment: Inhibition of PIK3CA E542K mutant at 10 uM
[39] = target: Serine/threonine-protein kinase PknB (Mycobacterium tuberculosis) (UniProt P9WI81); experiment: Inhibition of Mycobacterium tuberculosis PKNB at 10 uM
[40] = target: Serine/threonine-protein kinase D1 (Homo sapiens) (UniProt Q15139); experiment: Inhibition of PRKD1 at 10 uM
[41] = target: Serine/threonine-protein kinase D3 (Homo sapiens) (UniProt O94806); experiment: Inhibition of PRKD3 at 10 uM
[42] = target: Interferon-induced, double-stranded RNA-activated protein kinase (Homo sapiens) (UniProt P19525); experiment: Inhibition of PRKR at 10 uM
[43] = target: Interleukin-1 receptor-associated kinase 1 (Homo sapiens) (UniProt P51617); experiment: Inhibition of IRAK1 at 10 uM; values are per cent of control
[44] = target: Epidermal growth factor receptor (Homo sapiens) (UniProt P04626+P00533+Q15303+P21860); experiment: Inhibition of EGFR E746-A750del mutant at 10 uM; values are per cent of control

Q: Which EC50 (BaF3) does the source give for `CCN1CCN(Cc2ccc(NC(=O)c3ccc(C)c(C#Cc4cccnc4)c3)cc2C(F)(F)F)CC1` here?
A: The EC50 was 1.59 µM.

Q: What about the residual binding, % of control [1] of the same compound?
A: The residual binding, % of control was 6.4%.

Q: And the residual binding, % of control [2]?
A: Its residual binding, % of control is 100%.

Q: What about the residual binding, % of control [3] of the same compound?
A: The residual binding, % of control was 81%.

Q: What about the residual binding, % of control [4] of the same compound?
A: The residual binding, % of control was 8.2%.

Q: And the residual binding, % of control [5]?
A: Its residual binding, % of control is 100%.

Q: What about the residual binding, % of control [6] of the same compound?
A: The residual binding, % of control was 12%.

Q: And the residual binding, % of control [7]?
A: The residual binding, % of control was 24%.

Q: And the residual binding, % of control [8]?
A: Its residual binding, % of control is 2.9%.

Q: And the residual binding, % of control [9]?
A: The residual binding, % of control was 0%.

Q: What about the residual binding, % of control [10] of the same compound?
A: The residual binding, % of control was 78%.

Q: And the residual binding, % of control [11]?
A: Its residual binding, % of control is 2.7%.

Q: And the residual binding, % of control [12]?
A: The residual binding, % of control was 100%.

Q: What about the residual binding, % of control [13] of the same compound?
A: The residual binding, % of control was 100%.

Q: And the residual binding, % of control [14]?
A: The residual binding, % of control was 94%.

Q: What about the residual binding, % of control [15] of the same compound?
A: Its residual binding, % of control is 47%.

Q: And the residual binding, % of control [16]?
A: Its residual binding, % of control is 0.4%.

Q: What about the residual binding, % of control [17] of the same compound?
A: The residual binding, % of control was 0%.

Q: And the residual binding, % of control [18]?
A: The residual binding, % of control was 51%.

Q: What about the residual binding, % of control [19] of the same compound?
A: Its residual binding, % of control is 11%.

Q: What about the residual binding, % of control [20] of the same compound?
A: Its residual binding, % of control is 0%.

Q: What about the residual binding, % of control [21] of the same compound?
A: The residual binding, % of control was 99%.

Q: What about the residual binding, % of control [22] of the same compound?
A: The residual binding, % of control was 100%.

Q: What about the residual binding, % of control [23] of the same compound?
A: The residual binding, % of control was 100%.

Q: And the residual binding, % of control [24]?
A: Its residual binding, % of control is 6%.

Q: What about the residual binding, % of control [25] of the same compound?
A: The residual binding, % of control was 0%.

Q: And the residual binding, % of control [26]?
A: The residual binding, % of control was 94%.

Q: What about the residual binding, % of control [27] of the same compound?
A: The residual binding, % of control was 85%.

Q: And the residual binding, % of control [28]?
A: The residual binding, % of control was 100%.

Q: What about the inhibition [29] of the same compound?
A: The inhibition was 4%.

Q: What about the inhibition [30] of the same compound?
A: Its inhibition is 6.4%.

Q: What about the inhibition [31] of the same compound?
A: Its inhibition is 4.8%.

Q: And the inhibition [32]?
A: The inhibition was 41%.

Q: What about the inhibition [33] of the same compound?
A: The inhibition was 0.4%.

Q: What about the inhibition [34] of the same compound?
A: Its inhibition is 0.15%.

Q: And the residual binding, % of control [35]?
A: Its residual binding, % of control is 81%.

Q: And the residual binding, % of control [36]?
A: The residual binding, % of control was 0.05%.

Q: What about the inhibition [37] of the same compound?
A: The inhibition was 88%.

Q: And the inhibition [38]?
A: The inhibition was 100%.

Q: And the inhibition [39]?
A: The inhibition was 87%.

Q: And the inhibition [40]?
A: Its inhibition is 51%.

Q: And the inhibition [41]?
A: Its inhibition is 22%.

Q: What about the inhibition [42] of the same compound?
A: Its inhibition is 66%.

Q: And the level, % of control [43]?
A: Its level, % of control is 1.2%.

Q: And the level, % of control [44]?
A: The level, % of control was 1.8%.

Q: Which results are given for `CCN1CCN(Cc2ccc(NC(=O)c3ccc(C)c(C#Cc4cnc5[nH]ccc5c4)c3)cc2C(F)(F)F)CC1`?
A: EC50 (BaF3): 1 µM; residual binding, % of control [1]: 1.6%; residual binding, % of control [2]: 100%; residual binding, % of control [3]: 41%; residual binding, % of control [4]: 7.1%; residual binding, % of control [5]: 24%; residual binding, % of control [6]: 11%; residual binding, % of control [7]: 4.6%; residual binding, % of control [8]: 0.1%; residual binding, % of control [9]: 0%; residual binding, % of control [10]: 72%; residual binding, % of control [11]: 2.6%; residual binding, % of control [12]: 100%; residual binding, % of control [13]: 100%; residual binding, % of control [14]: 78%; residual binding, % of control [15]: 15%; residual binding, % of control [16]: 0.35%; residual binding, % of control [17]: 0.15%; residual binding, % of control [18]: 54%; residual binding, % of control [19]: 2.6%; residual binding, % of control [20]: 0%; residual binding, % of control [21]: 90%; residual binding, % of control [22]: 95%; residual binding, % of control [23]: 92%; residual binding, % of control [24]: 8.2%; residual binding, % of control [25]: 0%; residual binding, % of control [26]: 96%; residual binding, % of control [27]: 100%; residual binding, % of control [28]: 88%; inhibition [29]: 33%; inhibition [30]: 14%; inhibition [31]: 0.65%; inhibition [32]: 12%; inhibition [33]: 0.15%; inhibition [34]: 0%; residual binding, % of control [35]: 98%; residual binding, % of control [36]: 0.2%; inhibition [37]: 100%; inhibition [38]: 96%; inhibition [39]: 98%; inhibition [40]: 63%; inhibition [41]: 6.4%; inhibition [42]: 54%; level, % of control [43]: 6.2%; level, % of control [44]: 0.75%
